This note sets out measurements from paper PMC13629022 (ACS Omega, 2026).

The test system of data set [1] is murine macrophage-like J774.A1 cells. The data set can be described thus: Cytotoxicity to J774.A1 macrophages (Alamar Blue). As to conditions: concentrations up to 500 μM (compounds 7 and 13 up to 250 μM). The method, then: Cells were incubated for 72 h at 37 °C in a 5% CO2 atmosphere, as previously described. They were then stimulated with LPS (500 ng/mL, Sigma Chemical Co., St. Louis, MO, USA) and IFN-γ (5 ng/mL, Sigma). Compounds were added to the medium at eight concentrations ranging from 1.9 to 500 μM, in triplicate, and incubated for 24 h. Subsequently, 20 μL per well of Alamar Blue (Invitrogen, Carlsbad, CA, USA) was added to the plates for 6 h. Compounds 7, 11, and 13 were evaluated only up to a maximum concentration of 250 μM due to the limited amount of purified material available for testing. Colorimetric readings were performed at 570 and 600 nm. Triton X-100 (5%) was used as the positive control.

In data set [2] the test system is nitric oxide production by stimulated J774.A1 macrophages. The data set can be described thus: Nitric oxide production by LPS + IFN-γ stimulated J774.A1 macrophages (nitrite, Griess method). Type of data set: cell-based, murine. As to conditions: for IC50 / Emax: Mus musculus; for Emax: read-out: efficacy: maximum effect (% of the maximum possible effect), inhibition of NO production, J774.A1 macrophages stimulated with LPS + IFN-γ, 24 h. The method, then: (§1) For cytokine and nitric oxide evaluations, J774.A1 cells were seeded in 96-well tissue culture plates at 2 × 10^5 cells per well in DMEM supplemented with 10% FBS and 50 μg/mL gentamicin and incubated for 2 h at 37 °C in a 5% CO2 atmosphere, as previously described. Cells were then stimulated with LPS (500 ng/mL) and IFN-γ (5 ng/mL) in the presence of either the test compounds at different concentrations (3.9–250 μM), the medium alone, or dexamethasone (40 μM, reference drug) and further incubated at 37 °C. Cell-free supernatants were collected 24 h after incubation for IL-1β, IL-6, and nitrite quantification. Cytokine concentrations in the supernatants of J774.A1 cultures were determined by enzyme-linked immunosorbent assay (ELISA) using the DuoSet kit (R&D Systems, Minneapolis, MN, USA), according to the manufacturer’s instructions. Results were expressed as picograms per milliliter (pg/mL) of IL-1β or IL-6. Quantification of nitrite as an indicator of nitric oxide production was performed using the Griess method. Three independent experiments were performed. −

In data set [3] the test system is IL-1β production by stimulated J774.A1 macrophages. The data set can be described thus: IL-1β production by LPS + IFN-γ stimulated J774.A1 macrophages (ELISA). Type of data set: cell-based, murine. The settings on record: compounds at 62.5 μM, Dexa 40 μM, 24 h, vs stimulated untreated cells, p < 0.05. The protocol:
as §1, with “Cells” for “For cytokine and nitric oxide evaluations, J774.A1 cells were seeded in 96-well tissue culture plates at 2 × 10^5 cells per well in DMEM supplemented with 10% FBS and 50 μg/mL gentamicin and incubated for 2 h at 37 °C in a 5% CO2 atmosphere, as previously described. Cells”

The subject of data set [4] is IL-6 production by stimulated J774.A1 macrophages. As to the kind of experiment: IL-6 production by LPS + IFN-γ stimulated J774.A1 macrophages (ELISA). It is filed as cell-based, murine. The settings on record: compounds at 62.5 μM, Dexa 40 μM, 24 h, vs stimulated untreated cells, p < 0.05. The protocol: as §1, with “Cells” for “For cytokine and nitric oxide evaluations, J774.A1 cells were seeded in 96-well tissue culture plates at 2 × 10^5 cells per well in DMEM supplemented with 10% FBS and 50 μg/mL gentamicin and incubated for 2 h at 37 °C in a 5% CO2 atmosphere, as previously described. Cells”

Where [5] appears, read: J774.A1, 24 h, read-out: IC50, half maximal inhibitory concentration, NO production, J774.A1 macrophages stimulated with LPS (500 ng/mL) + IFN-γ (5 ng/mL), 24 h, nitrite by Griess.
[6] abbreviates: J774.A1, read-out: IC50 (in Figure 8 panels), nitric oxide production, Figure 8, no unit in the boxes, μM only in axis labels, LPS + IFN-γ stimulated J774.A1.

“Also recorded” adds a separate entry of the source. Like-named read-outs stand apart in the source and are kept apart here.

For `COC1CC(OC2CCC3(C)C(CCC4(O)C3CC(OC(=O)C=Cc3ccccc3)C3(C)C(O)(C(C)OC(=O)c5cccnc5)CCC43O)C2)OC(C)C1OC1CC(OC)C(OC2OC(C)C(O)C(OC)C2O)C(C)O1` [Compound 2, 12-O-cinnamoyl-20-O-nicotinoyl-(20R)-5,6-dihydrosarcostin-3-O-β-D-6-deoxy-3-O-methyl-allopyranosyl-(1 → 4)-β-D-oleandropyranosyl-(1 → 4)-β-D-cymaropyranoside], the “cytotoxic effects in J774 macrophages (in words)” value (“cytotoxic effects” for short) in data set [1] is given as “did not induce cytotoxic effects”. Moreover, the IC50 in data set [2] (setting [5]) is 32.1 µM. The Emax in data set [2] (J774.A1, 24 h) was more than 70%. Besides, the “production of IL-1β (in words)” value in data set [3] is given as “significant reduction; also recorded: comparable to those of Dexa”. Also, the “production of IL-6 (in words)” value in data set [4] is given as “comparable to those of Dexa”.
`COC1CC(OC2C(C)OC(OC3CCC4(C)C(CCC5(O)C4CC(OC(=O)C=Cc4ccccc4)C4(C)C(O)(C(C)OC(=O)c6cccnc6)CCC54O)C3)CC2OC(C)=O)OC(C)C1OC1OC(C)C(O)C(OC)C1O` [Compound 3, 12-O-cinnamoyl-20-O-nicotinoyl-(20R)-5,6-dihydrosarcostin-3-O-β-D-6-deoxy-3-O-methyl-allopyranosyl-(1 → 4)-β-D-oleandropyranosyl-(1 → 4)-β-D-3′-O-acetyl-cymaropyranoside]: the “cytotoxic effects” value in data set [1] is on record as “did not induce cytotoxic effects”. Further, the “efficacy: maximum effect (% of the maximum possible effect), inhibition of NO production” value in data set [2] (J774.A1 macrophages stimulated with LPS + IFN-γ, 24 h) came out at 68.0%. The IC50 in data set [2] (setting [5]) and in data set [2] (setting [6]) was 29.1 µM throughout. In addition, the Emax in data set [2] (J774.A1, 24 h) worked out at 71.8%. Also, in data set [3], the “production of IL-1β (in words)” value is recorded as “significant reduction; also recorded: comparable to those of Dexa”. Besides, the “production of IL-6 (in words)” value in data set [4] is recorded as “comparable to those of Dexa”.
For the compound `COC1CC(OC2CCC3(C)C(CCC4C3CC(OC(=O)C=Cc3ccccc3)C3(C)C(C(C)O)CCC43O)C2)OC(C)C1OC1CC(OC)C(OC2OC(C)C(O)C(OC)C2O)C(C)O1` [Compound 10, 12-O-cinnamoyl-(20S)-5,6,8,17-tetrahydrosarcostin-3-O-β-D-6-deoxy-3-O-methyl-allopyranosyl-(1 → 4)-β-D-oleandropyranosyl-(1 → 4)-β-D-cymaropyranoside], the “cytotoxic effects” value in data set [1] is listed as “most cytotoxic”. For the same compound, the IC50 in data set [2] (setting [5]) and in data set [2] (setting [6]) was 17.5 µM in each case. Further, in data set [2] (J774.A1, 24 h), the Emax was 66.1%. For the same compound, the “production of IL-1β (in words)” value in data set [3] was “significantly reducing; also recorded: significant reduction; also recorded: comparable to those of Dexa”. The “production of IL-6 (in words)” value in data set [4] was “significantly reducing; also recorded: comparable to those of Dexa”.
On to `COC1CC(OC2CCC3(C)C(CCC4(O)C3CC(OC(=O)C=Cc3ccccc3)C3(C)C(O)(C(C)OC(=O)c5ccccc5)CCC43O)C2)OC(C)C1OC1CC(OC)C(OC2OC(C)C(O)C(OC)C2O)C(C)O1` [Compound 4, 12-O-cinnamoyl-20-O-benzoyl-(20R)-5,6-dihydrosarcostin-3-O-β-D-6-deoxy-3-O-methyl-allopyranosyl-(1 → 4)-β-D-oleandropyranosyl-(1 → 4)-β-D-cymaropyranoside], for which the “cytotoxic effects” value in data set [1] was “did not induce cytotoxic effects”. Further, in data set [2] (setting [5]), the IC50 is more than 100 µM. In data set [2] (J774.A1, 24 h), the Emax is less than 50%. The “production of IL-1β (in words)” value in data set [3] was “significant reduction”. For the same compound, the “production of IL-6 (in words)” value in data set [4] is reported as “reduced IL-1β production but not IL-6”.
